# Experimental data: patent US8895585B2, “Nicotinamide derivative or salt thereof” (FUJIFILM Corporation, priority 2010, dated 2014)
# Target: T1, glutathione S-transferase (GST)-fused full-length human Syk protein (Homo sapiens, UniProt P43405)
# T1 construct: (GST)-fused full-length human Syk protein; GST (glutathione S-transferase); purchased Carna Biosciences
# Test: Syk enzyme assay
# Format: biochemical
# Details: Syk enzyme assay, Test Example 1; read-out: IC50 of Syk-inhibitory activity
# Protocol: A glutathione S-transferase (GST)-fused full-length human Syk protein (Carna Biosciences), which had been generated using a Baculovirus expression system, was used in the Syk enzyme assay.
# 15 μl of a reaction solution (1.2 ng Syk, 20 mM HEPES, 10 mM MgCl2, 50 mM NaCl, 2 mM DTT, 0.05% BSA, pH 7.0) containing a Syk protein and a predetermined concentration of a test compound was shaken for 2 minutes, and it was then left at rest at room temperature for 13 minutes. Thereafter, 5 μl of Biotin-EDPDYEWPSA-NH2 (final concentration: 0.4 μM) serving as a substrate peptide and 5 μl of ATP (final concentration: 27 μM) were added to the reaction solution, and the obtained mixture was then shaken for 2 minutes. The reaction solution was further left at rest at room temperature for 40 minutes, so as to carry out an enzyme reaction.
# Thereafter, 50 μl of a reaction termination solution [5 μg/ml Streptavidin, 0.18 μg/ml PT66-K, 30 mM HEPES (pH 7.0), 150 mM KF, 75 mM EDTA, 0.15% BSA, 0.075% Tween20], which contained Streptavidin-Xlent (Cisbio) and Mab PT66-K (Cisbio), was added to the reaction solution to terminate the enzyme reaction. At the same time, the reaction solution was left at rest at room temperature for 1 hour, so as to carry out an antigen-antibody reaction. Thereafter, using EnVision (PerkinElmer), the time-resolved fluorescence was measured at 615 nm and 665 nm, so that the phosphorylation of the substrate peptide was measured.
# In addition, the following are standards for evaluating IC50 of Syk-inhibitory activity used in Table 21. • A: Up to 10 nM • B: 10 to 50 nM • C: 50 to 100 nM • D: 100 to 1000 nM The set of numbers (XYZ-xyz) given in each Example number column indicates the corresponding Example number (Example XYZ-xyz) in Table 21.
row,Compound,IC50 [nM]
1,"Cc1cccc(-c2cncc(Nc3nc(N[C@@H]4CCCC[C@@H]4N)c(F)cc3C(N)=O)c2)c1 (relative stereo) [Example 004-099, 6-(cis-2-aminocyclohexylamino)-5-fluoro-2-((5-(3-methylphenyl)pyridin-3-yl)amino)-nicotinamide]",< 10
2,"Cc1ccc(-c2cncc(Nc3nc(N[C@@H]4CCCC[C@@H]4N)c(F)cc3C(N)=O)c2)cc1 (relative stereo) [Example 004-100, 6-(cis-2-aminocyclohexylamino)-5-fluoro-2-((5-(4-methylphenyl)pyridin-3-yl)amino)-nicotinamide]",< 10
3,"Cc1ccccc1-c1cncc(Nc2nc(N[C@@H]3CCCC[C@@H]3N)c(F)cc2C(N)=O)c1 (relative stereo) [Example 004-101, 6-(cis-2-aminocyclohexylamino)-5-fluoro-2-((5-(2-methylphenyl)pyridin-3-yl)amino)-nicotinamide]",10 to 50
4,"NC(=O)c1cc(F)c(N[C@@H]2CCCC[C@@H]2N)nc1Nc1ccc(C(F)(F)F)nc1 (relative stereo) [Example 004-102, 6-(cis-2-aminocyclohexylamino)-5-fluoro-2-((6-(trifluoromethyl)pyridin-3-yl)amino)-nicotinamide]",50 to 100
5,"NC(=O)c1cc(F)c(N[C@@H]2CCCC[C@@H]2N)nc1Nc1cncc(N2CCCCC2=O)c1 (relative stereo) [Example 004-108, 6-(cis-2-aminocyclohexylamino)-5-fluoro-2-((5-(2-oxopiperidine-1-yl)pyridin-3-yl)amino)-nicotinamide]",100 to 1000
6,"NC(=O)c1cc(F)c(N[C@@H]2CCCC[C@@H]2N)nc1Nc1cncc(-c2cccc(OCCN3CCOCC3)c2)c1 (relative stereo) [Example 004-110, 6-(cis-2-aminocyclohexylamino)-5-fluoro-2-((5-(3-(2-morpholinoethoxy)phenyl)pyridin-3-yl)amino)nicotinamide]",< 10
7,"COCCOc1ccc(-c2cncc(Nc3nc(N[C@@H]4CCCC[C@@H]4N)c(F)cc3C(N)=O)c2)cc1 (relative stereo) [Example 004-111, 6-(cis-2-aminocyclohexylamino)-5-fluoro-2-((5-(4-(2-methoxyethoxy)phenyl)pyridin-3-yl)-amino)nicotinamide]",< 10
8,"NC(=O)c1cc(F)c(N[C@@H]2CCCC[C@@H]2N)nc1Nc1cncc(-c2ccc(OCCN3CCOCC3)cc2)c1 (relative stereo) [Example 004-112, 6-(cis-2-aminocyclohexylamino)-5-fluoro-2-((5-(4-(2-morpholinoethoxy)phenyl)pyridin-3-yl)amino)nicotinamide]",< 10
9,"CNc1cccc2cc(Nc3nc(N[C@@H]4CCCC[C@@H]4N)c(F)cc3C(N)=O)cnc12 (relative stereo) [Example 004-116, 6-(cis-2-aminocyclohexylamino)-5-fluoro-2-((8-(methylamino)quinolin-3-yl)amino)-nicotinamide]",< 10
10,"Cn1ccc(-c2cncc(Nc3nc(N[C@@H]4CCCC[C@@H]4N)c(F)cc3C(N)=O)c2)c1 (relative stereo) [Example 004-119, 6-(cis-2-aminocyclohexylamino)-5-fluoro-2-((5-(1-methyl-1H-pyrrol-3-yl)pyridin-3-yl)-amino)nicotinamide]",< 10
11,"COCCOc1cccc2cc(Nc3nc(N[C@@H]4CCCC[C@@H]4N)c(F)cc3C(N)=O)cnc12 (relative stereo) [Example 004-121, 6-(cis-2-aminocyclohexylamino)-5-fluoro-2-((8-(2-methoxyethoxy)quinolin-3-yl)amino)-nicotinamide]",< 10
12,"NC(=O)c1cc(F)c(N[C@@H]2CCCC[C@@H]2N)nc1Nc1cnc2c(O)cccc2c1 (relative stereo) [Example 004-124, 6-(cis-2-aminocyclohexylamino)-5-fluoro-2-((8-hydroxyquinolin-3-yl)amino)nicotinamide]",< 10
13,"NC(=O)c1cc(F)c(N[C@@H]2CCCC[C@@H]2N)nc1Nc1ccc2nccn2c1 (relative stereo) [Example 004-130, 6-(cis-2-aminocyclohexylamino)-5-fluoro-2-((imidazo[1,2-a]pyridin-6-yl)amino)-nicotinamide]",100 to 1000
14,"NC(=O)c1cc(F)c(N[C@@H]2CCCC[C@@H]2N)nc1Nc1ccn2ccnc2c1 (relative stereo) [Example 004-131, 6-(cis-2-aminocyclohexylamino)-5-fluoro-2-((imidazo[1,2-a]pyridin-7-yl)amino)-nicotinamide]",10 to 50
15,"NC(=O)c1cc(F)c(N[C@@H]2CCCC[C@@H]2N)nc1Nc1cnc2c(F)cccc2c1 (relative stereo) [Example 004-135, 6-(cis-2-aminocyclohexylamino)-5-fluoro-2-((8-fluoroquinolin-3-yl)amino)nicotinamide]",10 to 50
16,"CNc1cc(Nc2nc(N[C@@H]3CCCC[C@@H]3N)c(F)cc2C(N)=O)cc2cccnc12 (relative stereo) [Example 004-136, 6-(cis-2-aminocyclohexylamino)-5-fluoro-2-((8-(methylamino)quinolin-6-yl)amino)-nicotinamide]",< 10
17,"COCCNc1cc(Nc2nc(N[C@@H]3CCCC[C@@H]3N)c(F)cc2C(N)=O)cc2cccnc12 (relative stereo) [Example 004-137, 6-(cis-2-aminocyclohexylamino)-5-fluoro-2-((8-(2-methoxyethylamino)quinolin-6-yl)-amino)nicotinamide]",< 10
18,"COc1cc(Nc2nc(N[C@@H]3CCCC[C@@H]3N)c(F)cc2C(N)=O)cc2cccnc12 (relative stereo) [Example 004-138, 6-(cis-2-aminocyclohexylamino)-5-fluoro-2-((8-methoxyquinolin-6-yl)amino)nicotinamide]",< 10
19,"COCCOc1cc(Nc2nc(N[C@@H]3CCCC[C@@H]3N)c(F)cc2C(N)=O)cc2cccnc12 (relative stereo) [Example 004-139, 6-(cis-2-aminocyclohexylamino)-5-fluoro-2-((8-(2-methoxyethoxy)quinolin-6-yl)amino)-nicotinamide]",< 10
20,"NC(=O)c1cc(F)c(N[C@@H]2CCCC[C@@H]2N)nc1Nc1cc(OCc2ccccc2)c2ncccc2c1 (relative stereo) [Example 004-140, 6-(cis-2-aminocyclohexylamino)-2-((8-(benzyloxy)quinolin-6-yl)amino)-5-fluoronicotinamide]",10 to 50
21,"COC(=O)c1cc(Nc2nc(N[C@@H]3CCCC[C@@H]3N)c(F)cc2C(N)=O)cnc1N (relative stereo) [Example 004-142, methyl 2-amino-5-((6-(cis-2-aminocyclohexylamino)-3-carbamoyl-5-fluoropyridin-2-yl)amino)nicotinate]",10 to 50
22,"NC(=O)c1cc(F)c(N[C@@H]2CCCC[C@@H]2N)nc1Nc1cncc(-c2cccc(F)c2)c1 (relative stereo) [Example 004-144, 6-(cis-2-aminocyclohexylamino)-5-fluoro-2-((5-(3-fluorophenyl)pyridin-3-yl)amino)-nicotinamide]",< 10
23,"NC(=O)c1cc(F)c(N[C@@H]2CCCC[C@@H]2N)nc1Nc1cncc(-c2ccc(F)cc2)c1 (relative stereo) [Example 004-145, 6-(cis-2-aminocyclohexylamino)-5-fluoro-2-((5-(4-fluorophenyl)pyridin-3-yl)amino)-nicotinamide]",< 10
24,"NC(=O)c1cc(F)c(N[C@@H]2CCCC[C@@H]2N)nc1Nc1cncc(-c2ccccc2Cl)c1 (relative stereo) [Example 004-146, 6-(cis-2-aminocyclohexylamino)-2-((5-(2-chlorophenyl)pyridin-3-yl)amino)-5-fluoronicotinamide]",< 10
25,"NC(=O)c1cc(F)c(N[C@@H]2CCCC[C@@H]2N)nc1Nc1cncc(-c2cccc(Cl)c2)c1 (relative stereo) [Example 004-147, 6-(cis-2-aminocyclohexylamino)-2-((5-(3-chlorophenyl)pyridin-3-yl)amino)-5-fluoronicotinamide]",< 10
26,"NC(=O)c1cc(F)c(N[C@@H]2CCCC[C@@H]2N)nc1Nc1cncc(-c2ccc(Cl)cc2)c1 (relative stereo) [Example 004-148, 6-(cis-2-aminocyclohexylamino)-2-((5-(4-chlorophenyl)pyridin-3-yl)amino)-5-fluoronicotinamide]",10 to 50
27,"COCCOc1ncc(Nc2nc(N[C@@H]3CCCC[C@@H]3N)c(F)cc2C(N)=O)c2ccccc12 (relative stereo) [Example 004-150, 6-(cis-2-aminocyclohexylamino)-5-fluoro-2-((1-(2-methoxyethoxy)isoquinolin-4-yl)amino)-nicotinamide]",100 to 1000
